We go through 15 compounds from patent publication US20230031406A1, “COMPOUNDS AND COMPOSITIONS FOR TREATING CONDITIONS ASSOCIATED WITH NLRP ACTIVITY” (Novartis AG, priority 2018, published 2023).

One may read the IC50 as the concentration that gives 50% inhibition.

The subject of this experiment is PMA-differentiated THP-1 cells. Nature of the experiment: hTHP-1 assay containing 10% fetal bovine serum (IL-1β production, Tables B5 and B6). Type of experiment: cell-based, human. On the procedure: The following protocol is suitable for testing the activity of the compounds disclosed herein. Procedure 1: IL-1β Production in PMA-Differentiated THP-1 Cells Stimulated with Gramicidin.
THP-1 cells were purchased from the American Type Culture Collection and sub-cultured according to instructions from the supplier. Cells were cultured in complete RPMI 1640 (containing 10% heat inactivated FBS, penicillin (100 units/ml) and streptomycin (100 μg/ml)), and maintained in log phase prior to experimental setup. Prior to the experiment, compounds were dissolved in dimethyl sulfoxide (DMSO) to generate a 30 mM stock. The compound stock was first pre-diluted in DMSO to 3, 0.34, 0.042 and 0.0083 mM intermediate concentrations and subsequently spotted using Echo550 liquid handler into an empty 384-well assay plate to achieve desired final concentration (e.g. 100, 33, 11, 3.7, 1.2, 0.41, 0.14, 0.046, 0.015, 0.0051, 0.0017 μM). DMSO was backfilled in the plate to achieve a final DMSO assay concentration of 0.37%. The plate was then sealed and stored at room temperature until required.
THP-1 cells were treated with PMA (Phorbol 12-myristate 13-acetate) (20 ng/ml) for 16-18 hours. On the day of the experiment the media was removed and adherent cells were detached with trypsin for 5 minutes. […] The cells were plated in the 384-well assay plate containing the spotted compounds at a density of 50,000 cells/well (final assay volume 50 μl). Cells were incubated with compounds for 1 hour and then stimulated with gramicidin (5 μM) (Enzo) for 2 hours. Plates were then centrifuged at 340 g for 5 min. Cell free supernatant (40 μL) was collected using a 96—CHannel PlateMaster (Gilson) and the production of IL-1β was evaluated by HTRF (cisbio). The plates were incubated for 18 h at 4° C. and read using the preset HTRF program (donor emission at 620 nm, acceptor emission at 668 nm) of the SpectraMax i3x spectrophotometer (Molecular Devices, software SoftMax 6). A vehicle only control and a dose titration of CRID3 (100-0.0017 μM) were run concurrently with each experiment.
Procedure 2: IL-1β Production in PMA-Differentiated THP-1 Cells Stimulated with Gramicidin.
THP-1 cells were purchased from the American Type Culture Collection and sub-cultured according to instructions from the supplier. Prior to experiments, cells were cultured in complete RPMI 1640 (containing 10% heat inactivated FBS, penicillin (100 units/ml) and streptomycin (100 μg/ml)), and maintained in log phase prior to experimental setup. Prior to the experiment THP-1 were treated with PMA (Phorbol 12-myristate 13-acetate) (20 ng/ml) for 16-18 hours. Compounds were dissolved in dimethyl sulfoxide (DMSO) to generate a 30mM stock. On the day of the experiment the media was removed and adherent cells were detached with trypsin for 5 minutes. […] The cells were plated in a 384-well plate at a density of 50,000 cells/well (final assay volume […]). Compounds were first dissolved in assay medium to obtain a 5× top concentration of 500 μM. 10 step dilutions (1:3) were then undertaken in assay medium containing 1.67% DMSO. 5× compound solutions were added to the culture medium to achieve desired final concentration (e.g. 100, 33, 11, 3.7, 1.2, 0.41, 0.14, 0.046, 0.015, 0.0051, 0.0017 μM). Final DMSO concentration was at 0.37%. Cells were incubated with compounds for 1 hour and then stimulated with gramicidin (5 μM) (Enzo) for 2 hours. Plates were then centrifuged at 340 g for 5 min. Cell free supernatant (40 μL) was collected using a 96—CHannel PlateMaster (Gilson) and the production of IL-1β was evaluated by HTRF (cisbio). A vehicle only control and a dose titration of CRID3 (100-0.0017 μM) were run concurrently with each experiment.
Tables B1, B2, B3, and B4 show the biological activity of compounds in hTHP-1 assay containing 2% fetal bovine serum. […] Key: <0.008 μM=“++++++”; ≥0.008 and <0.04 μM=“+++++”; >0.04 and <0.2 μM=“++++”; ≥0.2 and <1 μM=“+++”; ≥1 and <5 μM=“++”; ≥5 and <30 μM=“+”. […]

The mark [1] stands for this setting: Homo sapiens, THP-1, read-out: hTHP-1 IC50 in 10% FBS, hTHP-1 assay containing 10% fetal bovine serum, Table B5.

Like-named read-outs stand apart in the source and are kept apart here.

Consider `CC(C)(O)c1csc(S(N)(=O)=NC(=O)Nc2c3c(nc(C4CC4)c2C2CC2)CCC3)c1F` (single isomer, unassigned) [Compound 1106a, (R) or (S)-N′-((2,3-dicyclopropyl-6,7-dihydro-5H-cyclopenta[b]pyridin-4-yl)carbamoyl)-3-fluoro-4-(2-hydroxypropan-2-yl)thiophene-2-sulfonimidamide], for which the IC50 (read-out: hTHP-1 IC50 in 10% FBS, hTHP-1 assay containing 10% fetal bovine serum, Table B5, listed as 830) fell in the range of 40 to 200 nM. Take `Cc1c(C(F)(F)F)nc2c(c1NC(=O)N=S(N)(=O)c1nn(C(C)(F)F)cc1F)CCC2` (stereo not drawn) [Compound 1004, 1-(1,1-Difluoroethyl)-4-fluoro-N′-((3-methyl-2-(trifluoromethyl)-6,7-dihydro-5H-cyclopenta [b]pyridin-4-yl)carbamoyl)-1H-pyrazole-3-sulfonimidamide]: the IC50 under setting [1] was in the range of 200 to 1000 nM. In the case of `Cc1c(C(F)(F)F)nc2c(c1NC(=O)N=S(N)(=O)c1scc(C(C)(C)O)c1F)CCC2` (single isomer, unassigned) [Compound 1108b, (S) or (R)-3-fluoro-4-(2-hydroxypropan-2-yl)-N′-((3-methyl-2-(trifluoromethyl)-6,7-dihydro-5H-cyclopenta[b]pyridin-4-yl)carbamoyl)thiophene-2-sulfonimidamide], the IC50 (read-out: hTHP-1 IC50 in 10% FBS, hTHP-1 assay containing 10% fetal bovine serum, Table B5, listed as 841) was 1000 to 5000 nM. For the compound `C[C@@H]1CCc2c1nc1c(c2NC(=O)N=S(N)(=O)c2scc(C(C)(C)O)c2F)CCC1` (stereo partly drawn) [Compound 1109, 3-Fluoro-4-(2-hydroxy-propan-2-yl)-N′-(((R)-3-methyl-1,2,3,5,6,7-hexahydrodicyclopenta [b,e]pyridin-8-yl)-carbamoyl)thiophene-2-sulfonimidamide], under setting [1], the IC50 fell in the range of 8 to 40 nM. With `Cc1c(C(F)(F)F)nc2c(c1NC(=O)N=S(N)(=O)c1nn(C3CC3)cc1F)CCC2` (single isomer, unassigned) [Example 870, (S) or (R)-1-cyclopropyl-4-fluoro-N′-((3-methyl-2-(trifluoromethyl)-6,7-dihydro-5H-cyclopenta[b]pyridin-4-yl)carbamoyl)-1H-pyrazole-3-sulfonimidamide], the half-inhibitory concentration (IC50) (read-out: hTHP-1 IC50 in 10% FBS, hTHP-1 assay containing 10% fetal bovine serum, Table B6) was 1000 to 5000 nM. Regarding `NS(=O)(=NC(=O)Nc1c2c(nc3c1CCC3)CCC2)c1nn(C2CC2)cc1F` (stereo not drawn) [Example 858, 1-Cyclopropyl-4-fluoro-N′-((1,2,3,5,6,7-hexahydrodicyclopenta[b,e]pyridin-8-yl)carbamoyl)-1H-pyrazole-3-sulfonimidamide], the IC50 (Homo sapiens, THP-1, read-out: hTHP-1 IC50 in 10% FBS, hTHP-1 assay containing 10% fetal bovine serum, Table B6) was in the range of 40 to 200 nM.

With `CCn1cc(F)c(S(N)(=O)=NC(=O)Nc2c3c(nc(C)c2C(F)(F)F)CCC3)n1` (stereo not drawn) [Compound 1012, 1-Ethyl-4-fluoro-N′-((2-methyl-3-(trifluoromethyl)-6,7-dihydro-5H-cyclopenta[b]pyridin-4-yl)carbamoyl)-1H-pyrazole-3-sulfonimidamide], under setting [1], the concentration for half-maximal inhibition (IC50) is 40 to 200 nM.

Consider `CC(C)(O)c1csc(S(N)(=O)=NC(=O)Nc2c3c(nc(C(F)(F)F)c2C2CC2)CCC3)c1F` (single isomer, unassigned) [Compound 1105b, (S) or (R)-N′-((3-cyclopropyl-2-(trifluoromethyl)-6,7-dihydro-5H-cyclopenta[b]pyridin-4-yl)carbamoyl)-3-fluoro-4-(2-hydroxypropan-2-yl)thiophene-2-sulfonimidamide], for which, where the note is “read-out: hTHP-1 IC50 in 10% FBS, hTHP-1 assay containing 10% fetal bovine serum, Table B5, listed as 835”, the IC50 was in the range of 200 to 1000 nM.

Turning to `CCn1cc(F)c(S(N)(=O)=NC(=O)Nc2c3c(nc(C(F)(F)F)c2-c2ccc(F)c(F)c2)CCC3)n1` (single isomer, unassigned) [Compound 1113a, (S) or (R)-N′-((3-(3,4-difluorophenyl)-2-(trifluoromethyl)-6,7-dihydro-5H-cyclopenta[b]pyridin-4-yl)carbamoyl)-1-ethyl-4-fluoro-1H-pyrazole-3-sulfonimidamide], the IC50 (read-out: hTHP-1 IC50 in 10% FBS, hTHP-1 assay containing 10% fetal bovine serum, Table B5, listed as 836) was in the range of 200 to 1000 nM. Regarding `CC(F)(F)n1cc(F)c(S(N)(=O)=NC(=O)Nc2c3c(nc4c2CCC4)CCC3)n1` (single isomer, unassigned) [Compound 1115a, (R) or (S)-1-(1,1-difluoroethyl)-4-fluoro-N′-((l,2,3,5,6,7-hexa-hydrodicyclopenta[b,e]pyridin-8-yl)carbamoyl)-1H-pyrazole-3-sulfonimidamide], the IC50 (read-out: hTHP-1 IC50 in 10% FBS, hTHP-1 assay containing 10% fetal bovine serum, Table B5, listed as 846) lay in the range of 200 to 1000 nM.

`CCn1cc(F)c(S(N)(=O)=NC(=O)Nc2c3c(nc(C(F)(F)F)c2-c2ccc(F)c(F)c2)CCC3)n1` (single isomer, unassigned) [Compound 1113b, (R) or (S)-N′-((3-(3,4-difluorophenyl)-2-(trifluoromethyl)-6,7-dihydro-5H-cyclopenta[b]pyridin-4-yl)carbamoyl)-1-ethyl-4-fluoro-1H-pyrazole-3-sulfonimidamide]: the IC50 (read-out: hTHP-1 IC50 in 10% FBS, hTHP-1 assay containing 10% fetal bovine serum, Table B5, listed as 837) was 8 to 40 nM. As to `CC(C)(O)c1csc(S(N)(=O)=NC(=O)Nc2c3c(nc(C4CC4)c2C2CC2)CCC3)c1F` (stereo not drawn) [Compound 1006, N′-((2,3-dicyclopropyl-6,7-dihydro-5H-cyclopenta[b]pyridin-4-yl)-carbamoyl)-3-fluoro-4-(2-hydroxypropan-2-yl)thiophene-2-sulfonimidamide], the half-inhibitory concentration (IC50) under setting [1] was 40 to 200 nM.

In the case of `CCn1cc(F)c(S(N)(=O)=NC(=O)Nc2c3c(nc(C)c2C(F)(F)F)CCC3)n1` (single isomer, unassigned) [Compound 1116a, (R) or (S)-1-ethyl-4-fluoro-N′-((2-methyl-3-(trifluoromethyl)-6,7-dihydro-5H-cyclopenta[b]pyridin-4-yl)carbamoyl)-1H-pyrazole-3-sulfonimidamide], the IC50 (read-out: hTHP-1 IC50 in 10% FBS, hTHP-1 assay containing 10% fetal bovine serum, Table B5, listed as 848) lay in the range of 8 to 40 nM.

As to `C[C@@H]1CCc2c1nc1c(c2NC(=O)N=S(N)(=O)c2scc(C(C)(C)O)c2F)CCC1` (single isomer, unassigned) [Compound 1109a, (R) or (S)-3-fluoro-4-(2-hydroxypropan-2-yl)-N′-(((R)-3-methyl-1,2,3,5,6,7-hexahydrodicyclopenta [b,e]pyridin-8-yl)carbamoyl) thiophene-2-sulfonimidamide], where the note is “read-out: hTHP-1 IC50 in 10% FBS, hTHP-1 assay containing 10% fetal bovine serum, Table B5, listed as 842”, the IC50 lay in the range of 8 to 40 nM. For the compound `C[C@@H]1CCc2c1nc1c(c2NC(=O)N=S(N)(=O)c2nn(C(C)(F)F)cc2F)CCC1` (stereo partly drawn) [Compound 1111, 1-(1,1-Difluoroethyl)-4-fluoro-N′-(((R)-3-methyl-1,2,3,5,6,7-hexahydrodicyclopenta [b,e]pyridin-8-yl)carbamoyl)-1H-pyrazole-3-sulfonimidamide], the IC50 under setting [1] was 8 to 40 nM.
